For two molecules, AC50 results are on record in PubChem BioAssay AID504944 (Broad Institute, 2011).

In the assay the test system is HeLa cytotoxicity, plate reader, 48 h. As to the kind of experiment: HeLa cell cytotoxicity, dose response, cytotoxicity control, 48 h, plate reader, cherry-picks, set 2 (AID 504944).

In the case of `O=CC1=C(c2ccccc2)Oc2ccccc2O1`, the AC50 was 20.6 µM. Regarding `Cc1ccc2nc(-c3ccc4c(c3)OCCO4)cn2c1`, the AC50 was 22.3 µM.

For orientation: AC50 means the concentration giving half of the maximal activity seen.
